Assay results as given in publication PMC12698583, “Efficacy of sulfonamides targeting malic enzyme in an animal model of Chagas disease” (Frontiers in Pharmacology, 2025).

Legend:
[1] = target: T. cruzi malic enzyme (TcME) (Trypanosoma cruzi, UniProt Q4DJ68); test: Malic enzyme (TcME) inhibition assay, diaphorase/resazurin coupled; assay type: biochemical; details: concentration necessary to inhibit 50% of T. cruzi Malic enzyme enzymatic activity
Method: The TcME inhibition assay was performed as previously described, with minor modifications ([Mercaldi et al., 2021]). Briefly, a coupled assay with the enzyme diaphorase and resorufin fluorescence (Ex 545 nm/Em 600 nm) was recorded every 30 s for 6 min in a CLARIOstar plate reader (BMG LabTech). The final concentrations of reagents in the assay were: 0.02 mM NADP+, 0.4 mM L-aspartate, 0.45 nM TcMEc, 1 U/mL diaphorase, and 10 μM resazurin, all in 50 mM Tris-HCl buffer containing 50 mM NaCl and 2 mM MnCl2 at pH 7.5. The reaction was initiated by adding 1.32 mM L-malate.

[2] = Tolerability study, Hippocratic screening; assay type: in vivo, mice; set-up: Hypnosis / Sedation / Urination / Tachypnea / Muscle tone / Convulsions / Salivation / Tremors / Vocalization / Limb abduction / Ataxia: scale not given here; details: 150 mg/kg PO
Method: A tolerability study of drug candidates was conducted using the Hippocratic screening protocol, focusing on the assessment of effects on the central nervous system (CNS) and autonomic nervous system (ANS). Each group containing 3 animals received a 150 mg/kg dose of the compounds via oral (PO) administration (gavage). During the experiment, various behavioral and physiological parameters were monitored at regular intervals, ranging from 0 to 24 hours after administration of the substance.

Sequence of T. cruzi malic enzyme (TcME) (Q4DJ68 entry or part of it): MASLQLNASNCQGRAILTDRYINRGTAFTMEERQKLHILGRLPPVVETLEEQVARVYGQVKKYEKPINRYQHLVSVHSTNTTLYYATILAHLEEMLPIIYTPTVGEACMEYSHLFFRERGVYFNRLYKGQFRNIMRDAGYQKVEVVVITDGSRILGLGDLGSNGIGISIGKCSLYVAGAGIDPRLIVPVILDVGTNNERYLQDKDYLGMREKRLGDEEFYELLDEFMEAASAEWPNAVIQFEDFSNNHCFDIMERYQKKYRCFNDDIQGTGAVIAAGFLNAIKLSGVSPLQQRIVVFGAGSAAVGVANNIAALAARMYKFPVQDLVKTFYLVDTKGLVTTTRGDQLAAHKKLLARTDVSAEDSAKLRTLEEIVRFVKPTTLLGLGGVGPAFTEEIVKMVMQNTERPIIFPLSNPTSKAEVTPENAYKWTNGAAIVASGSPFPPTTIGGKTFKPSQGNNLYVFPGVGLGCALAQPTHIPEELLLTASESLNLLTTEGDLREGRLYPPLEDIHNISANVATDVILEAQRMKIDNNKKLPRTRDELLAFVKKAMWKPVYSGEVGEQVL

For `CC(C)Oc1ccc(NS(=O)(=O)c2cccc(NC(=O)c3cnccn3)c2)cc1` [AC-M110, N-(3-(N-(4-isopropoxyphenyl)sulfamoyl)phenyl)pyrazine-2-carboxamide], the IC50 [1] was 7 µM, the Ataxia ([2]; 0-15 min) was 0A and the Convulsions ([2]; 0-15 min) was 0A. The Hypnosis ([2]; 0-15 min) was 0A, the Limb abduction ([2]; 0-15 min) was 0A and the Muscle tone ([2]; 0-15 min) was 0A. It also gave a Pedaling ([2]; 0-15 min) of 0A, a Piloerection ([2]; 0-15 min) of 0A and a Ptosis ([2]; 0-15 min) of 0A. It also gave a Salivation ([2]; 0-15 min) of 0A, a Sedation ([2]; 0-15 min) of 0A and a Tachypnea ([2]; 0-15 min) of 0A. It also gave a Tremors ([2]; 0-15 min) of 0A, a Urination ([2]; 0-15 min) of 0A and a Vocalization ([2]; 0-15 min) of 0A. It also gave an Ataxia ([2]; 15 min) of 0A, a Convulsions ([2]; 15 min) of 0A and a Hypnosis ([2]; 15 min) of 0A. For the same molecule, the Limb abduction ([2]; 15 min) was 0A, the Muscle tone ([2]; 15 min) was 0A and the Pedaling ([2]; 15 min) was 0A. It also gave a Piloerection ([2]; 15 min) of 0A, a Ptosis ([2]; 15 min) of 0A and a Salivation ([2]; 15 min) of 0A. The Sedation ([2]; 15 min) was 0A, the Tachypnea ([2]; 15 min) was 0A and the Tremors ([2]; 15 min) was 0A. The Urination ([2]; 15 min) was 0A, the Vocalization ([2]; 15 min) was 0A and the Ataxia ([2]; 30 min) was 0A. It also gave a Convulsions ([2]; 30 min) of 0A, a Hypnosis ([2]; 30 min) of 0A and a Limb abduction ([2]; 30 min) of 0A. For the same molecule, the Muscle tone ([2]; 30 min) was 0A, the Pedaling ([2]; 30 min) was 0A and the Piloerection ([2]; 30 min) was 0A. For the same molecule, the Ptosis ([2]; 30 min) was 0A, the Salivation ([2]; 30 min) was 0A and the Sedation ([2]; 30 min) was 0A. The Tachypnea ([2]; 30 min) was 0A, the Tremors ([2]; 30 min) was 0A and the Urination ([2]; 30 min) was 0A. For the same molecule, the Vocalization ([2]; 30 min) was 0A, the Ataxia ([2]; 60 min) was 0A and the Convulsions ([2]; 60 min) was 0A. The Hypnosis ([2]; 60 min) was 0A, the Limb abduction ([2]; 60 min) was 0A and the Muscle tone ([2]; 60 min) was 0A. For the same molecule, the Pedaling ([2]; 60 min) was 0A, the Piloerection ([2]; 60 min) was 0A and the Ptosis ([2]; 60 min) was 0A. The Salivation ([2]; 60 min) was 0A, the Sedation ([2]; 60 min) was 0A and the Tachypnea ([2]; 60 min) was 0A. It also gave a Tremors ([2]; 60 min) of 0A, a Urination ([2]; 60 min) of 0A and a Vocalization ([2]; 60 min) of 0A. The Ataxia ([2]; 2h) was 0A, the Convulsions ([2]; 2h) was 0A and the Hypnosis ([2]; 2h) was 0A. For the same molecule, the Limb abduction ([2]; 2h) was 0A, the Muscle tone ([2]; 2h) was 0A and the Pedaling ([2]; 2h) was 0A. The Piloerection ([2]; 2h) was 0A, the Ptosis ([2]; 2h) was 0A and the Salivation ([2]; 2h) was 0A. For the same molecule, the Sedation ([2]; 2h) was 0A, the Tachypnea ([2]; 2h) was 0A and the Tremors ([2]; 2h) was 0A. It also gave a Urination ([2]; 2h) of 0A, a Vocalization ([2]; 2h) of 0A and an Ataxia ([2]; 3h) of 0A. It also gave a Convulsions ([2]; 3h) of 0A, a Hypnosis ([2]; 3h) of 0A and a Limb abduction ([2]; 3h) of 0A. For the same molecule, the Muscle tone ([2]; 3h) was 0A, the Pedaling ([2]; 3h) was 0A and the Piloerection ([2]; 3h) was 0A. It also gave a Ptosis ([2]; 3h) of 0A, a Salivation ([2]; 3h) of 0A and a Sedation ([2]; 3h) of 0A. It also gave a Tachypnea ([2]; 3h) of 0A, a Tremors ([2]; 3h) of 0A and a Urination ([2]; 3h) of 0A. It also gave a Vocalization ([2]; 3h) of 0A, an Ataxia ([2]; 4h) of 0A and a Convulsions ([2]; 4h) of 0A. It also gave a Hypnosis ([2]; 4h) of 0A, a Limb abduction ([2]; 4h) of 0A and a Muscle tone ([2]; 4h) of 0A. It also gave a Pedaling ([2]; 4h) of 0A, a Piloerection ([2]; 4h) of 0A and a Ptosis ([2]; 4h) of 0A. For the same molecule, the Salivation ([2]; 4h) was 0A, the Sedation ([2]; 4h) was 0A and the Tachypnea ([2]; 4h) was 0A. It also gave a Tremors ([2]; 4h) of 0A, a Urination ([2]; 4h) of 0A and a Vocalization ([2]; 4h) of 0A. The Ataxia ([2]; 24h) was 0A, the Convulsions ([2]; 24h) was 0A and the Hypnosis ([2]; 24h) was 0A. For the same molecule, the Limb abduction ([2]; 24h) was 0A, the Muscle tone ([2]; 24h) was 0A and the Pedaling ([2]; 24h) was 0A. It also gave a Piloerection ([2]; 24h) of 0A, a Ptosis ([2]; 24h) of 0A and a Salivation ([2]; 24h) of 0A. The Sedation ([2]; 24h) was 0A, the Tachypnea ([2]; 24h) was 0A and the Tremors ([2]; 24h) was 0A. The Urination ([2]; 24h) was 0A and the Vocalization ([2]; 24h) was 0A.
In the case of `COc1ccc(NS(=O)(=O)c2cccc(NC(=O)c3cnccn3)c2)cc1` [AC-R008, N-(3-(N-(4-methoxyphenyl)sulfamoyl)phenyl)pyrazine-2-carboxamide], the IC50 [1] is reported as 0.5 µM, the Ataxia ([2]; 0-15 min) is reported as 0A and the Convulsions ([2]; 0-15 min) is reported as 0A. The Hypnosis ([2]; 0-15 min) was 0A, the Limb abduction ([2]; 0-15 min) was 0A and the Muscle tone ([2]; 0-15 min) was 0A. It also gave a Pedaling ([2]; 0-15 min) of 0A, a Piloerection ([2]; 0-15 min) of 0A and a Ptosis ([2]; 0-15 min) of 0A. It also gave a Salivation ([2]; 0-15 min) of 0A, a Sedation ([2]; 0-15 min) of 0A and a Tachypnea ([2]; 0-15 min) of 0A. The Tremors ([2]; 0-15 min) was 0A, the Urination ([2]; 0-15 min) was 0A and the Vocalization ([2]; 0-15 min) was 0A. It also gave an Ataxia ([2]; 15 min) of 0A, a Convulsions ([2]; 15 min) of 0A and a Hypnosis ([2]; 15 min) of 0A. For the same molecule, the Limb abduction ([2]; 15 min) was 0A, the Muscle tone ([2]; 15 min) was 0A and the Pedaling ([2]; 15 min) was 0A. The Piloerection ([2]; 15 min) was 0A, the Ptosis ([2]; 15 min) was 0A and the Salivation ([2]; 15 min) was 0A. The Sedation ([2]; 15 min) was 0A, the Tachypnea ([2]; 15 min) was 0A and the Tremors ([2]; 15 min) was 0A. It also gave a Urination ([2]; 15 min) of 0A, a Vocalization ([2]; 15 min) of 0A and an Ataxia ([2]; 30 min) of 0A. The Convulsions ([2]; 30 min) was 0A, the Hypnosis ([2]; 30 min) was 0A and the Limb abduction ([2]; 30 min) was 0A. For the same molecule, the Muscle tone ([2]; 30 min) was 0A, the Pedaling ([2]; 30 min) was 0A and the Piloerection ([2]; 30 min) was 0A. For the same molecule, the Ptosis ([2]; 30 min) was 0A, the Salivation ([2]; 30 min) was 0A and the Sedation ([2]; 30 min) was 0A. For the same molecule, the Tachypnea ([2]; 30 min) was 0A, the Tremors ([2]; 30 min) was 0A and the Urination ([2]; 30 min) was 0A. For the same molecule, the Vocalization ([2]; 30 min) was 0A, the Ataxia ([2]; 60 min) was 0A and the Convulsions ([2]; 60 min) was 0A. It also gave a Hypnosis ([2]; 60 min) of 0A, a Limb abduction ([2]; 60 min) of 0A and a Muscle tone ([2]; 60 min) of 0A. For the same molecule, the Pedaling ([2]; 60 min) was 0A, the Piloerection ([2]; 60 min) was 0A and the Ptosis ([2]; 60 min) was 0A. The Salivation ([2]; 60 min) was 0A, the Sedation ([2]; 60 min) was 0A and the Tachypnea ([2]; 60 min) was 0A. The Tremors ([2]; 60 min) was 0A, the Urination ([2]; 60 min) was 0A and the Vocalization ([2]; 60 min) was 0A. It also gave an Ataxia ([2]; 2h) of 0A, a Convulsions ([2]; 2h) of 0A and a Hypnosis ([2]; 2h) of 0A. For the same molecule, the Limb abduction ([2]; 2h) was 0A, the Muscle tone ([2]; 2h) was 0A and the Pedaling ([2]; 2h) was 0A. For the same molecule, the Piloerection ([2]; 2h) was 0A, the Ptosis ([2]; 2h) was 0A and the Salivation ([2]; 2h) was 0A. It also gave a Sedation ([2]; 2h) of 0A, a Tachypnea ([2]; 2h) of 0A and a Tremors ([2]; 2h) of 0A. The Urination ([2]; 2h) was 0A, the Vocalization ([2]; 2h) was 0A and the Ataxia ([2]; 3h) was 0A. It also gave a Convulsions ([2]; 3h) of 0A, a Hypnosis ([2]; 3h) of 0A and a Limb abduction ([2]; 3h) of 0A. It also gave a Muscle tone ([2]; 3h) of 0A, a Pedaling ([2]; 3h) of 0A and a Piloerection ([2]; 3h) of 0A. It also gave a Ptosis ([2]; 3h) of 0A, a Salivation ([2]; 3h) of 0A and a Sedation ([2]; 3h) of 0A. It also gave a Tachypnea ([2]; 3h) of 0A, a Tremors ([2]; 3h) of 0A and a Urination ([2]; 3h) of 0A. For the same molecule, the Vocalization ([2]; 3h) was 0A, the Ataxia ([2]; 4h) was 0A and the Convulsions ([2]; 4h) was 0A. For the same molecule, the Hypnosis ([2]; 4h) was 0A, the Limb abduction ([2]; 4h) was 0A and the Muscle tone ([2]; 4h) was 0A. The Pedaling ([2]; 4h) was 0A, the Piloerection ([2]; 4h) was 0A and the Ptosis ([2]; 4h) was 0A. It also gave a Salivation ([2]; 4h) of 0A, a Sedation ([2]; 4h) of 0A and a Tachypnea ([2]; 4h) of 0A. For the same molecule, the Tremors ([2]; 4h) was 0A, the Urination ([2]; 4h) was 0A and the Vocalization ([2]; 4h) was 0A. The Ataxia ([2]; 24h) was 0A, the Convulsions ([2]; 24h) was 0A and the Hypnosis ([2]; 24h) was 0A. It also gave a Limb abduction ([2]; 24h) of 0A, a Muscle tone ([2]; 24h) of 0A and a Pedaling ([2]; 24h) of 0A. The Piloerection ([2]; 24h) was 0A, the Ptosis ([2]; 24h) was 0A and the Salivation ([2]; 24h) was 0A. It also gave a Sedation ([2]; 24h) of 0A, a Tachypnea ([2]; 24h) of 0A and a Tremors ([2]; 24h) of 0A. For the same molecule, the Urination ([2]; 24h) was 0A and the Vocalization ([2]; 24h) was 0A.
